The source of these data is patent US20190256491A1, “Methods For Treatment Of 16P11.2 Microdeletion Syndrome” (Massachusetts Institute of Technology, priority 2012, published 2019).

The test system of assay [1] is mGluR5-LTD at the Schaffer collateral-CA1 synapse of hippocampal slices. Put plainly: PP-LFS LTD, hippocampal slice electrophysiology. Also noted: species or system mouse. The note with it: ACSF with APV 50 μM ± CHX 30 min. The procedure: (§1) Electrophysiological experiments were performed at the Schaffer collateral-CA1 synapse of hippocampal slices prepared from p28 to p35 male mice using experimental protocols as previously described ((Auerbach et al., 2011)). Dorsal hippocampal slices (400 μm thick) were used in all recordings. Input-output functions were determined by incrementally (10 μA to 100 μA) stimulating the Schaffer collaterals and recording the resulting fEPSP response. Paired-pulse facilitation was conducted by applying two stimulus pulses at varying inter-stimulus-intervals (ISI). Facilitation was measured by taking the ratio of the fEPSP slope in response to stimulus 2 to that of stimulus 1. […] For paired-pulse low frequency stimulation (PP-LFS) slices were incubated in ACSF containing APV (50 μM)±CHX for 30 min. mGluR5-LTD was then induced by application (20 min) of paired-pulse stimulation (50 ms ISI) at 1 Hz, and synaptic responses were recorded for an additional 60 min.
(§2) Group I mGluR mediated synaptic plasticity was assessed. mGluR-LTD can be induced either by chemical induction by pharmacological stimulation of mGluRs (DHPG-LTD) or electrical induction by applying a series of paired pulses at about 50 ms interval (PP-LFS-LTD). […]

Assay [2] concerns mGluR-LTD at the Schaffer collateral-CA1 synapse of hippocampal slices. Description: DHPG-LTD, hippocampal slice electrophysiology. Also on record: species or system mouse. The note with it: CHX 60 μM, 40 min, DHPG 50 μM, 5 min. How it is done: as §1, §2
In assay [3] the test system is chr7qF3 mutant mice (mouse model of human chr16p11.2 microdeletion) and WT mice. Description: Inhibitory avoidance extinction (IAE) test. Type of assay: in vivo. How it is done: Inhibitory avoidance extinction (IAE) tests were performed as previously described with modification ((Dolen et al., 2007)). Briefly, 4-6 weeks male mice were divided into four groups according to genotype and CTEP treatment: WT+vehicle, WT+CTEP, Mutant+vehicle, and Mutant+CTEP. CTEP or vehicle was administered by oral gavage every other day for 4 weeks. The last dose was given about 16-20 hours prior to the training session. IA tests were conducted in a two-chambered Perspex box consisting of a lighted side and a dark side separated by a trap door. On the training day, mice were habituated in the behavioral room for about 2 hours before training. During training, a mouse was placed into the lit side of the chamber and allowed to explore for about 30 seconds before the trap door was opened. The ensuing time spent by the animal in the light chamber before entering the dark chamber was recorded as latency. Immediately after fully entering the dark side of the camber, subjects were given about a 2 sec mild foot shock (about 0.4 mA) and allowed to spend an additional 60 sec before being returned to their home-cage. The acquisition and expression of fear memory was tested at about 6, about 24, and about 48 hours post training. The testing protocol used was the same as the training protocol. Latencies to enter the dark side of the chamber were recorded and used as measurement of IAE performance. Statistical significance was determined using two-way ANOVA and post hoc Student's t-tests.
Mice were evaluated in another hippocampus-associated behavioral paradigm: inhibitory avoidance (IA). IA is a multi-phase test used to assay memory formation and extinction. During the training session (0 hr), mice were placed in the light chamber of a two-chamber box. After a variable latency in the light side, they entered the dark side of the box where about a 2 sec foot-shock was delivered. Acquisition and extinction of the fear memory, as measured by the latency to re-enter the dark chamber from the lighted side, was tested 6 hr (acquisition) as well as about 24 hr and about 48 hr (extinction) after training. Experiments were conducted to determine: (1) if chr7qF3 mice had deficits similar to Fmrl KO mice in the IA test, and (2) if deficits were present, could the mGluR5 inhibitor CTEP treatment ameliorate them. Mice were divided into four groups: WT+vehicle, WT+CTEP, Mut+vehicle, and Mut+CTEP. CTEP was given by the same dosing regime previously used with Fmrl KO mice ((Michalon et al., 2012)).

For assay [4], the system named is pre-synaptic glutamate release, Schaffer collateral-CA1 synapse of hippocampal slices. Put plainly: Paired-pulse facilitation at beginning and end of DHPG-LTD experiment. Also on record: species or system mouse. The note with it: both WT and mutant slices; independent of CHX treatment. The procedure: as §1
To test whether the difference in CHX sensitivity between WT and mutant slices was due to a different pre-synaptic response to either DHPG treatment or PP-LFS induction, paired pulse facilitation at the beginning and end of DHPG-LTD experiment (FIGS. 2C and 2D) was assessed. […]

“Also recorded” adds a separate entry of the source.

Regarding `C[C@@H]1C[C@@H]([C@H](O)CC2CC(=O)NC(=O)C2)C(=O)[C@@H](C)C1` [CHX, Cycloheximide], the “effect on PP-LFS LTD” value in assay [1] (WT slices) is “almost completely blocked”; in assay [1] (chr7qF3 mutant slices), “no effect; also recorded: remains unaffected”. Also, the figures for the “effect on DHPG-induced LTD” value in assay [2] (WT slices) and in assay [2] (chr7qF3 mutant slices) were “significantly blocked” and “no effect; also recorded: remains unaffected”, respectively.
Turning to `Cc1nc(C#Cc2ccnc(Cl)c2)c(C)n1-c1ccc(OC(F)(F)F)cc1` [CTEP, 2-chloro-4-((2,5-dimethyl-1-(4-(trifluoromethoxy)phenyl)-1H-imidazol-4-yl)ethynyl)pyridine], in assay [3] (Chr7qF3 mutant mice, 6, 24 and 48 hours post training, chronic oral gavage every other day for 4 weeks), the “latency to re-enter the chamber” value was “significantly lengthens”. The “extinction of fear memory at 48 hr” value is listed as “significant extinction” in assay [3] (Mut+CTEP, similar to the two wildtype groups) and “exhibited extinction” in assay [3] (WT+CTEP). In addition, in assay [3] (Mut+CTEP, to a level comparable to WT+vehicle mice), the “latency to re-enter the dark chamber at 6 hr (acquisition)” value is on record as “dramatically lengthened”. For the same compound, in assay [3] (WT mice, WT+CTEP vs WT+vehicle), the “effect on latency to re-enter the chamber” value is given as “no effect”. The “cognitive impairment / fear memory deficits in IAE test” value in assay [3] (chr7qF3 mutant mice, chronic oral treatment) was “significantly ameliorates; also recorded: ameliorated”.
For `N[C@H](C(=O)O)c1cc(O)cc(O)c1` [DHPG, S-3,5-dihydrozyphenylglycine], the “paired pulse facilitation after DHPG treatment” value in assay [4] is “increased paired pulse facilitation”.
